From US20090312370A1, “MACROCYCLIC COMPOUNDS USEFUL AS BACE INHIBITORS” (priority 2006, published 2009)

Target: T1, Human BACE (Homo sapiens, UniProt P56817)
T1 construct: Recombinant BACE (extracellular domain, expressed in baculovirus and purified using standard methods); made in house; host or cells: baculovirus expression system (insect cells)
Assay: Test 1: Inhibition of Human BACE
Assay type: biochemical
Details: recombinant BACE, fluorescence-quenched peptide substrate, pH 4.5
Protocol: Test 1: Inhibition of Human BACE
Recombinant BACE (extracellular domain, expressed in baculovirus and purified using standard methods) at 0.1 to 10 nM concentrations is incubated with the test compound at various concentrations for 1 hour at room temperature in 10 to 100 mM acetate buffer, pH 4.5, containing 0.1% CHAPS.

T1 sequence (P56817 46-457 limits assumed): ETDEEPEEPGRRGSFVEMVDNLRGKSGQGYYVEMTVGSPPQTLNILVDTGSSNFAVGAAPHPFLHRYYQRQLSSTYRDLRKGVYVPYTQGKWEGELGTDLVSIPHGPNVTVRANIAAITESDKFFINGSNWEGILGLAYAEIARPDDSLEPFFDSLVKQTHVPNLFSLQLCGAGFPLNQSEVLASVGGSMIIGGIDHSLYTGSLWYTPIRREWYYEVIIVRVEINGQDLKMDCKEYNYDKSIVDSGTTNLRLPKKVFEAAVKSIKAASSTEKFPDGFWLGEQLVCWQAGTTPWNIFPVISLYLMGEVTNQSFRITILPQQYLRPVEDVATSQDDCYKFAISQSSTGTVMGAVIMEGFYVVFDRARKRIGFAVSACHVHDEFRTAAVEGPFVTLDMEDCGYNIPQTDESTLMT

IC50: 40 nM
Compound: COc1cc2cc(c1)C(=O)N[C@H]([C@H](O)CNC1(c3cc(C(C)(C)C)ccn3)CC1)C[C@H](C)CCCCCCCN2 [Example 7, (10R,12S)-12-{(R)-2-[1-(4-tert-Butyl-pyrid-2-yl)-cyclopropylamino]-1-hydroxy-ethyl}-17-methoxy-10-methyl-2,13-diaza-bicyclo[13.3.1]nonadeca-1(19),15,17-trien-14-one]
